In patent US20110053916A1 (Vertex Pharmaceuticals Incorporated, priority 2009, published 2011):

What follows are molecules tested against T1, PknB (Mycobacterium tuberculosis, UniProt P9WI81) (assay: biochemical). Conditions: 3 nM PknB, 6 uM GarA, 3 μM ATP, 30 min; competitive tight-binding fit; several symbols in a cell = repeat determinations.
T1 construct: made in house
T1 sequence (P9WI81 whole entry): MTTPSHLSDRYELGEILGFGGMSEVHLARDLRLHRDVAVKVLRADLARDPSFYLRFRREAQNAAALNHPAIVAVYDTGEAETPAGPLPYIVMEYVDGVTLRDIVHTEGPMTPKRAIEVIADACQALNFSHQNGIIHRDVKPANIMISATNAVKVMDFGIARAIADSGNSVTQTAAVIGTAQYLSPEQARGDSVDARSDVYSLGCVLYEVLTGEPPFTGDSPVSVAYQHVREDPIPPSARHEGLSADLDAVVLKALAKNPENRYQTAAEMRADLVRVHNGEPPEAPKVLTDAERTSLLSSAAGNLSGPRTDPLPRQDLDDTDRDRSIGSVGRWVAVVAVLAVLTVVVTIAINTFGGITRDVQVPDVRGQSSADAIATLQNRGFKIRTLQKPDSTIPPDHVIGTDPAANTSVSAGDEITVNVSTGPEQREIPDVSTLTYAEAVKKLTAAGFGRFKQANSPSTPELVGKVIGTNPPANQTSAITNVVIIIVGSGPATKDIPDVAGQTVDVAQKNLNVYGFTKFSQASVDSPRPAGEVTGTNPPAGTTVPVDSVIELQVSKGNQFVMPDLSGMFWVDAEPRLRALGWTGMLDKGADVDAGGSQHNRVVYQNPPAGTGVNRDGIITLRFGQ
Set-up: species or system M. tuberculosis
NS(=O)(=O)C/C=C/c1cccc(Nc2cc(C3CC3)[nH]n2)n1 [Compound 270, 3-[6-[(5-cyclopropyl-1H-pyrazol-3-yl)amino]-2-pyridyl]prop-2-ene-1-sulfonamide] was tested, and the “Ki Values” was “B**, B*, B*, B*”. In the case of N#Cc1cc(Nc2cc(C3CC3)n[nH]2)nc(-c2ccc(S(N)(=O)=O)s2)n1 [Compound 295, 5-[4-cyano-6-[(5-cyclopropyl-2H-pyrazol-3-yl)amino]-pyrimidin-2-yl]thiophene-2-sulfonamide], the “Ki Values” is reported as “A**, B**”.

Same assay, conditions: 3 nM PknB, 6 uM GarA, 3 μM ATP, 30 min; competitive tight-binding fit; several symbols in a cell = repeat determinations; read-out: Ki Values
With NNS(=O)(=O)c1ccc(-c2ncc(Cl)c(Nc3cc(C4CC4)[nH]n3)n2)s1 [Compound 251, 5-(5-chloro-4-(5-cyclopropyl-1H-pyrazol-3-ylamino)pyrimidin-2-yl)thiophene-2-sulfonohydrazide] the Ki was 10 to 50 nM. Molecule CC(C)(C)NS(=O)(=O)c1ccc(-c2ncc(NC=O)c(Nc3cc(C4CC4)[nH]n3)n2)s1 [Compound 253, N-[4-[(5-cyclopropyl-1H-pyrazol-3-yl)amino]-2-[5-(tert-butylsulfamoyl)-2-thienyl]-pyrimidin-5-yl]formamide] has a Ki of 100 to 500 nM. With C#Cc1cnc(-c2ccc(S(C)(=O)=O)s2)nc1Nc1cc(C2CC2)[nH]n1 [Compound 255, N-(5-cyclopropyl-4H-pyrazol-3-yl)-5-ethynyl-2-(5-(methylsulfonyl)thiophen-2-yl)pyrimidin-4-amine] the Ki was 1 to 10 nM. Molecule C#Cc1cnc(N2CCCN(C(C)=O)CC2)nc1Nc1cc(C2CC2)n[nH]1 [Compound 258, 1-[4-[4-[(5-cyclopropyl-2H-pyrazol-3-yl)amino]-5-ethynyl-pyrimidin-2-yl]-1,4-diazepan-1-yl]ethanone] has a Ki of 100 to 500 nM. With NS(=O)(=O)c1ccc(-c2ncc(Cl)c(Nc3cc(C4CCN(C(=O)OCc5ccccc5)C4)n[nH]3)n2)s1 (stereo not drawn) [Compound 262, benzyl 3-[5-[[5-chloro-2-(5-sulfamoyl-2-thienyl)-pyrimidin-4-yl]amino]-1H-pyrazol-3-yl]pyrrolidine-1-carboxylate] the Ki was 1000 to 2000 nM. In the case of NS(=O)(=O)c1ccc(-c2ncc(Cl)c(Nc3cc(C4CCNC4)n[nH]3)n2)s1 (stereo not drawn) [Compound 263, 5-[5-chloro-4-[(5-pyrrolidin-3-yl-2H-pyrazol-3-yl)amino]-pyrimidin-2-yl]thiophene-2-sulfonamide], the Ki is reported as > 4000 nM. Molecule C[S+]([O-])c1ccc(-c2ncc(Cl)c(Nc3cc(C4CC4)[nH]n3)n2)s1 (stereo not drawn) [Compound 264, 5-chloro-N-(5-cyclopropyl-1H-pyrazol-3-yl)-2-(5-methylsulfinyl-2-thienyl)-pyrimidin-4-amine] has a Ki of 1 to 10 nM. Molecule CC(C)(C)NS(=O)(=O)C/C=C/c1cccc(Nc2cc(C3CC3)[nH]n2)n1 [Compound 269, 3-[6-[(5-cyclopropyl-1H-pyrazol-3-yl)amino]-2-pyridyl]-N-tert-butyl-prop-2-ene-1-sulfonamide] has a Ki of 100 to 500 nM. With CC(C)(C)NS(=O)(=O)c1ccc(-c2cccc(Nc3cc(C4CC4)[nH]n3)n2)s1 [Compound 271, 5-[6-[(5-cyclopropyl-1H-pyrazol-3-yl)amino]-2-pyridyl]-N-tert-butyl-thiophene-2-sulfonamide] the Ki was 10 to 50 nM. Molecule NS(=O)(=O)c1ccc(-c2cccc(Nc3cc(C4CC4)[nH]n3)n2)s1 [Compound 272, 5-[6-[(5-cyclopropyl-1H-pyrazol-3-yl)amino]-2-pyridyl]thiophene-2-sulfonamide] has a Ki of 1 to 10 nM. In the case of CC(C)(C)NS(=O)(=O)c1ccc(-c2ccc([N+](=O)[O-])c(Nc3cc(C4CC4)n[nH]3)n2)s1 [Compound 274, 5-[6-[(5-cyclopropyl-2H-pyrazol-3-yl)amino]-5-nitro-2-pyridyl]-N-tert-butyl-thiophene-2-sulfonamide], the Ki is reported as 50 to 100 nM. Nc1ccc(-c2ccc(S(N)(=O)=O)s2)nc1Nc1cc(C2CC2)n[nH]1 [Compound 276, 5-[5-amino-6-[(5-cyclopropyl-2H-pyrazol-3-yl)amino]-2-pyridyl]thiophene-2-sulfonamide] gave a Ki of 1 to 10 nM. With O=C1/C=C\c2c(n[nH]c2C2CC2)Nc2nc(ncc2Cl)-c2ccccc21 [Compound 277, chloro-cyclopropyl-BLAHone] the Ki was > 4000 nM. Work on CC(C)(C)NS(=O)(=O)c1ccc(-c2nc(Nc3cc(C4CC4)[nH]n3)cc(C(=O)O)n2)s1 [Compound 278, 6-[(5-cyclopropyl-1H-pyrazol-3-yl)amino]-2-[5-(tert-butylsulfamoyl)-2-thienyl]-pyrimidine-4-carboxylic acid] yielded a Ki of 100 to 500 nM. In the case of CS(=O)(=O)NCc1ccc(-c2ncc(Cl)c(Nc3cc(C4CC4)n[nH]3)n2)s1 [Compound 280, N-[[5-[5-chloro-4-[(5-cyclopropyl-2H-pyrazol-3-yl)amino]-pyrimidin-2-yl]-2-thienyl]methyl]methanesulfonamide], the Ki is reported as 10 to 50 nM. Work on NS(=O)(=O)c1ccc(-c2ncc(/C=C/CO)c(Nc3cc(C4CC4)[nH]n3)n2)s1 [Compound 281, (E)-5-(4-(5-cyclopropyl-1H-pyrazol-3-ylamino)-5-(3-hydroxyprop-1-enyl)pyrimidin-2-yl)thiophene-2-sulfonamide] yielded a Ki of 1 to 10 nM. CN(C)c1cc(Nc2cc(C3CC3)n[nH]2)nc(-c2ccc(S(N)(=O)=O)s2)n1 [Compound 282, 5-[4-[(5-cyclopropyl-2H-pyrazol-3-yl)amino]-6-dimethylamino-pyrimidin-2-yl]thiophene-2-sulfonamide] was tested, and the Ki was 2000 to 4000 nM. For NS(=O)(=O)c1ccc(-c2nc(Nc3cc(C4CC4)[nH]n3)cc(C(=O)O)n2)s1 [Compound 283, 6-[(5-cyclopropyl-1H-pyrazol-3-yl)amino]-2-(5-sulfamoyl-2-thienyl)-pyrimidine-4-carboxylic acid], the Ki was 100 to 500 nM. NS(=O)(=O)c1ccc(-c2nc(CO)cc(Nc3cc(C4CC4)[nH]n3)n2)s1 [Compound 285, 5-[4-[(5-cyclopropyl-1H-pyrazol-3-yl)amino]-6-(hydroxymethyl)pyrimidin-2-yl]thiophene-2-sulfonamide] gave a Ki of 1 to 10 nM. CC(C)(C)NS(=O)(=O)c1ccc(-c2nc(CO)cc(Nc3cc(C4CC4)[nH]n3)n2)s1 [Compound 286, 5-[4-[(5-cyclopropyl-1H-pyrazol-3-yl)amino]-6-(hydroxymethyl)pyrimidin-2-yl]-N-tert-butyl-thiophene-2-sulfonamide] gave a Ki of 10 to 50 nM. Molecule CC(=O)c1ccc(-c2ncc(Cl)c(Nc3cc(C4CC4)[nH]n3)n2)o1 [Compound 288, 1-[5-[5-chloro-4-[(5-cyclopropyl-1H-pyrazol-3-yl)amino]-pyrimidin-2-yl]-2-furyl]ethanone] has a Ki of 100 to 500 nM. Molecule CC(O)c1ccc(-c2ncc(Cl)c(Nc3cc(C4CC4)[nH]n3)n2)o1 (stereo not drawn) [Compound 289, 1-[5-[5-chloro-4-[(5-cyclopropyl-1H-pyrazol-3-yl)amino]-pyrimidin-2-yl]-2-furyl]ethanol] has a Ki of 100 to 500 nM. CSc1cc(Nc2cc(C3CC3)n[nH]2)nc(-c2ccc(S(N)(=O)=O)s2)n1 [Compound 291, 5-[4-[(5-cyclopropyl-2H-pyrazol-3-yl)amino]-6-methylsulfanyl-pyrimidin-2-yl]thiophene-2-sulfonamide] showed a Ki of 100 to 500 nM. In the case of NS(=O)(=O)c1ccc(-c2nc(Nc3n[nH]c(C4CC4)c3Cl)cc(C(=O)O)n2)s1 [Compound 292, 6-[(4-chloro-5-cyclopropyl-1H-pyrazol-3-yl)amino]-2-(5-sulfamoyl-2-thienyl)-pyrimidine-4-carboxylic acid], the Ki is reported as > 4000 nM. With Cc1nc(-c2ncc(Cl)c(Nc3cc(C4CC4)[nH]n3)n2)sc1C(C)O (stereo not drawn) [Compound 296, 1-(2-(5-chloro-4-(5-cyclopropyl-1H-pyrazol-3-ylamino)pyrimidin-2-yl)-4-methylthiazol-5-yl)ethanol] the Ki was 100 to 500 nM. CC(=O)c1sc(-c2ncc(Cl)c(Nc3cc(C4CC4)[nH]n3)n2)nc1C [Compound 297, 1-(2-(5-Chloro-4-(5-cyclopropyl-1H-pyrazol-3-ylamino)pyrimidin-2-yl)-4-methylthiazol-5-yl)ethanone] was tested, and the Ki was 10 to 50 nM. In the case of NS(=O)(=O)c1ccc(-c2nc(Nc3cc(C4CC4)n[nH]3)cc(C3CC3)n2)s1 [Compound 298, 5-(4-cyclopropyl-6-(3-cyclopropyl-1H-pyrazol-5-ylamino)pyrimidin-2-yl)thiophene-2-sulfonamide], the Ki is reported as 50 to 100 nM. NS(=O)(=O)c1ccc(-c2ncc(Cl)c(Nc3cc(C4CC4)[nH]n3)n2)cn1 [Compound 299, 5-[5-chloro-4-[(5-cyclopropyl-1H-pyrazol-3-yl)amino]-pyrimidin-2-yl]pyridine-2-sulfonamide] was tested, and the Ki was 10 to 50 nM. For CC(C)(C)NS(=O)(=O)c1ccc(-c2ncc(Cl)c(Nc3cc(C4CC4)[nH]n3)n2)cn1 [Compound 302, 5-[5-chloro-4-[(5-cyclopropyl-1H-pyrazol-3-yl)amino]-pyrimidin-2-yl]-N-tert-butyl-pyridine-2-sulfonamide], the Ki was 10 to 50 nM. Molecule NS(=O)(=O)c1ccc(-c2nc(Nc3cc(C4CC4)n[nH]3)c(Cl)c(C3CC3)n2)s1 [Compound 304, 5-(5-chloro-4-cyclopropyl-6-(3-cyclopropyl-1H-pyrazol-5-ylamino)pyrimidin-2-yl)thiophene-2-sulfonamide] has a Ki of 1 to 10 nM. CC(=O)OCCc1cnc(-c2ccc(S(=O)(=O)NC(C)(C)C)s2)nc1Nc1cc(C2CC2)[nH]n1 [Compound 309, 2-[4-[(5-cyclopropyl-1H-pyrazol-3-yl)amino]-2-[5-(tert-butylsulfamoyl)-2-thienyl]-pyrimidin-5-yl]ethyl acetate] was tested, and the Ki was 100 to 500 nM. OC1CCCc2nc(-c3ncc(Cl)c(Nc4cc(C5CC5)[nH]n4)n3)sc21 (stereo not drawn) [Compound 310, 2-[5-chloro-4-[(5-cyclopropyl-1H-pyrazol-3-yl)amino]-pyrimidin-2-yl]-4,5,6,7-tetrahydrobenzothiazol-7-ol] was tested, and the Ki was 100 to 500 nM. In the case of NS(=O)(=O)c1ccc(-c2nc(Nc3cc(C4CC4)n[nH]3)ncc2Cl)s1 [Compound 314, 5-[5-chloro-2-[(5-cyclopropyl-2H-pyrazol-3-yl)amino]-pyrimidin-4-yl]thiophene-2-sulfonamide], the Ki is reported as 1 to 10 nM. NS(=O)(=O)c1ccc(-c2ccnc(Nc3cc(C4CC4)n[nH]3)n2)s1 [Compound 315, 5-[2-[(5-cyclopropyl-2H-pyrazol-3-yl)amino]pyrimidin-4-yl]thiophene-2-sulfonamide] gave a Ki of 1 to 10 nM.
